Measurements as given in patent US12324893B2, “Triptan microporation delivery system” (PassPort Technologies, Inc., priority 2019, dated 2025).

Assay: in vivo
Settings: rat; for AUC / Cmax: hairless; for Tmax: in vivo
Method: In this study, four groups of hairless rats were tested under the following conditions: (1) Group 1 (3 mg free base API, Suc: 0.5 mg, AA: 1 mg); (2) Group 2 (6 mg free base API, Suc: 0.5 mg, AA: 1 mg); (3) Group 3 (9 mg free base API, Suc: 0.5 mg, AA: 1 mg); and (4) Group 4 (6 mg free base API per 100 μL head of saline).
The given bioavailability of Table 18 is relative bioavailability against SC injection.

## CNS(=O)(=O)Cc1ccc2[nH]cc(CCN(C)C)c2c1 [Sumatriptan Succinate]
sc, 6 mg
  AUC: 5.38 µg·h/mL
  Cmax: 9.78 µg/mL
Topical or ocular, 3 mg
  AUC: 2.6 µg·h/mL
  Cmax: 1.04 µg/mL
Topical or ocular, 6 mg
  AUC: 3.81 µg·h/mL
  Cmax: 1.4 µg/mL
  Tmax: 1.3 h
Topical or ocular, 9 mg
  AUC: 4.39 µg·h/mL
  Cmax: 1.58 µg/mL
  Tmax: 1.1 h
